The text below walks through data of patent US12510533B2, “Methods for treating multiple myeloma and the use of companion biomarkers for 4-(4-(4-(((2-(2,6-dioxopiperidin-3-yl)-1-oxoisoindolin-4-yl)oxy)methyl)benzyl)piperazin-1-yl)-3-fluorobenzonitrile” (Celgene Corporation, priority 2018, dated 2025).

One assay has as its system NCI-H929 cells. As to the kind of experiment: PBMC-induced MM cell lysis, PBMCs and MM cells both pretreated, versus single MM culture (NCI-H929). The class given is cell-based, human. The note with it: PBMCs and MM cells both preincubated 72 hours. The method, then:
Ninety-six-well dishes were pre-coated with anti-CD3 antibody (OKT3, 3 μg/mL) and incubated at 4° C. overnight before the start of the experiment. Frozen PBMC donor cells were thawed at 37° C. for 2 minutes in RPMI medium with 10% FBS and cell counts and viability were measured on the Vi-CELL analyzer. Peripheral blood mononuclear cells were washed and diluted to 1×10^6 cells/mL and dispensed into the compound-treated plates in a total volume of 200 μL. Cells were incubated with Compound 2 for 2 hours before being transferred onto anti-CD3-coated plates and incubated for an additional 72 hours. At the same time, MM cell lines (NCI-H929, H929-1051, OPM2, OPM2-P10) were diluted to a final concentration of 0.1×10^6 cells/mL and labeled with CellTrace CFSE according to manufacturer's instructions. Multiple myeloma cell lines were then dispensed into compound-treated plates at a total volume of 200 μL and incubated for 72 hours. After 72 hours, the PBMCs and MM cells were counted and transferred into a U-bottom 96-well plate at a final T:E ratio of 1:5. After 24 hours coculture, specific target cell lysis by PBMC mediated apoptosis was measured using Annexin V-AF647 and 7-AAD according to manufacturer's instructions and samples were run on the Attune NxT Cytometer. […]

Another assay relates to sBCMA. As to the kind of experiment: Phase 1 study, sBCMA in serum by ELISA. Format: in vivo, human. To be noted: one subject; with dexamethasone. The method, then:
This is an open-label, multi-center, international, Phase 1 study to assess the safety, PK/PD and preliminary efficacy of Compound 2 in combination with dexamethasone in subjects with RRMM.
Serum samples were taken before and during Compound 2 treatment at specified time points. The expression of sBCMA was measured by an ELISA assay.
For orientation: An ELISA detects its analyte on a solid surface through an enzyme-linked reagent.

Structures are written as SMILES.

Take `N#Cc1ccc(N2CCN(Cc3ccc(COc4cccc5c4CN([C@H]4CCC(=O)NC4=O)C5=O)cc3)CC2)c(F)c1` [Compound 2, (S)-4-(4-(4-(((2-(2,6-dioxopiperidin-3-yl)-1-oxoisoindolin-4-yl)oxy)methyl)benzyl)piperazin-1-yl)-3-fluorobenzonitrile]: the “enhancement of killing, IC50 of single MM culture versus immune and tumor cell co-culture” value with NCI-H929 cells is around 7000 fold. For the same molecule, the “decrease in sBCMA from baseline” value with sBCMA was above 80%.
